Assay results from the METLIN SMRT retention time set (Domingo-Almenara et al. 2019).

Assay: gradient 5% acetonitrile 3 min, to 50% in 2 min, to 85% in 15 min, held 3 min, 100 µL/min
Conditions: column: Zorbax Extend-C18 2.1 x 50 mm; eluents: water / acetonitrile, 0.1% formic acid
Outline: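 Standards, all pure, were combined into mixtures of ~100 molecules and run at 100 μL/min on a Zorbax Extend-C18 column (2.1 × 50 mm, 1.8 μm) with water and acetonitrile, each containing 0.1% formic acid. A coupled quadrupole time-of-flight mass spectrometer operated in positive and negative ionization mode. Retention time values come from computationally picked adduct peaks, each inspected manually.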
In the case of `Cc1nc(-c2ccc3c(c2)n(CC(=O)Nc2ccc(S(N)(=O)=O)cc2)c(=O)n3C(C)C)no1`, the RP-LC retention time is reported as 707 s. For `COc1ccc(-c2cn3cccnc3n2)cc1NC(=O)c1c(F)cccc1F`, the RP-LC retention time was 653 s. `CC(C)c1ccc(-c2ccnc3c(C(=O)N4CCN(c5ncccn5)CC4)cnn23)cc1` gave an RP-LC retention time of 963 s. In the case of `O=C(C1CCN(c2cncnc2N2CCOCC2)CC1)N1CCOCC1`, the RP-LC retention time is reported as 556 s. `COc1ccc(C(=O)CC2(O)C(=O)Nc3ccc(C)cc32)cc1OC` (centres undefined) showed an RP-LC retention time of 670 s. Work on `CC(C)c1ccc(S(=O)(=O)N(C)CC2CCOCC2)cc1` yielded an RP-LC retention time of 1010 s. `Cc1c(Cl)cccc1N1C(=O)CN(S(C)(=O)=O)CC1(C)C(=O)NC1CCCCCCC1` (centres undefined) gave an RP-LC retention time of 1010 s. Compound `CCn1cc(-c2ccc(C)cc2)cc1C(=O)NC(C)C` has an RP-LC retention time of 1040 s. Compound `COc1ccc(C2SCCN2S(=O)(=O)c2ccc(C)c([N+](=O)[O-])c2)cc1OC` (centres undefined) has an RP-LC retention time of 900 s. Compound `Cc1cn(C)nc1C(=O)Nc1nnc(-c2cccs2)o1` has an RP-LC retention time of 647 s. In the case of `Cc1ccc(CNC(=O)Cn2cccc2-c2nnc(C3CCC3)o2)cc1`, the RP-LC retention time is reported as 904 s. Compound `COC(=O)c1sccc1NC(=O)N1CCCC1c1nc(-c2cccc(Cl)c2)no1` (centres undefined) has an RP-LC retention time of 1220 s. For `Cc1cccc(N2CCN(C(=O)C3CC(=O)N(c4cccc(NC(=O)C(C)C)c4)C3)CC2)c1` (centres undefined), the RP-LC retention time was 803 s. `Cc1ccc(-n2cc(C(=O)OCc3ccco3)c3ccccc3c2=O)cc1` showed an RP-LC retention time of 1170 s. In the case of `CCCN(CCc1ccccc1)C1CCc2c(O)cccc2C1` (centres undefined), the RP-LC retention time is reported as 768 s. `O=C(CSc1nnc2c3sc(N4CCCC4)nc3ncn12)Nc1ccc(F)c(Cl)c1` gave an RP-LC retention time of 890 s. In the case of `CCc1noc(-c2cc(=O)n(CC(=O)Nc3ccccc3OC)c3ccccc23)n1`, the RP-LC retention time is reported as 962 s. `O=c1ccc(S(=O)(=O)N2CCCC2)cn1Cc1cccc(F)c1` showed an RP-LC retention time of 826 s. `O=C(c1cnccn1)N1CCC(c2noc(C3CC3)n2)C1` (centres undefined) showed an RP-LC retention time of 646 s. Compound `Cc1cc(C)cc(OCC(=O)N(Cc2ccc(Br)o2)C2CCS(=O)(=O)C2)c1` (centres undefined) has an RP-LC retention time of 966 s. In the case of `Cc1nnc(-c2ccc3ccn(CC(=O)NCc4ccc5c(c4)OCO5)c3c2)o1`, the RP-LC retention time is reported as 756 s. `Cc1nnc(N2CCCC(C(=O)NCc3ccco3)C2)c2nn(-c3ccccc3)c(C)c12` (centres undefined) gave an RP-LC retention time of 680 s. Work on `CSc1cccc(NC(=O)NCCNc2nc(C)cc(N(C)C)n2)c1` yielded an RP-LC retention time of 583 s. In the case of `CCSc1nc2ccc(NS(=O)(=O)c3ccc(CC)cc3)cc2s1`, the RP-LC retention time is reported as 1120 s. With `O=C1NCCCc2c1oc1ccc(O)cc21` the RP-LC retention time was 567 s. `CC(C)C(=O)Nc1cnc(-c2ccc(F)cc2)nc1` gave an RP-LC retention time of 861 s. Work on `Cc1ccc(S(=O)(=O)N2CCCC(Cn3cnc4cccnc43)C2)cc1F` (centres undefined) yielded an RP-LC retention time of 802 s. Work on `O=C(COc1ccccc1)Nc1cnc(N2CCOCC2)nc1` yielded an RP-LC retention time of 746 s. Work on `COc1ccc(NC(=O)CN2CCc3[nH]c4c(C)c(C)ccc4c(=O)c3C2)c(OC)c1` yielded an RP-LC retention time of 626 s. With `COCCCNc1nccc(-n2nc(C)cc2C)n1` the RP-LC retention time was 631 s. Work on `CCOc1ccc(Br)cc1S(=O)(=O)N1CCN(c2nc(C)cc(N(C)C)n2)CC1` yielded an RP-LC retention time of 765 s. `CN1CC(=O)N(CC(=O)N2CCN(c3cccc(Cl)c3)CC2)c2ccccc2C1=O` showed an RP-LC retention time of 747 s. `COc1ccc(NC(=O)c2cnc(N3CCN(c4ccc(OC)cc4)CC3)nc2N)cc1` showed an RP-LC retention time of 731 s. `CCn1cc(-c2nc(C(=O)Nc3ccccc3Cl)cs2)c2cccnc21` gave an RP-LC retention time of 1330 s. For `CC(=O)Oc1ccc(OC(C)=O)c2c1CC(C)=C(C)C2`, the RP-LC retention time was 1110 s. Compound `CCOc1ccc(N2CC(c3nc(-c4ccc(OC)cc4OC)no3)CC2=O)cc1` (centres undefined) has an RP-LC retention time of 902 s. `CCOc1ccc(-c2csc(Nc3ccc(C)cn3)n2)cc1` gave an RP-LC retention time of 949 s. Compound `COCc1nc(C2CCN(C(=O)c3ccoc3)C2)no1` (centres undefined) has an RP-LC retention time of 644 s. For `CCOC(=O)C1=C(C)NC2=C(C(=O)c3ccccc32)C1c1cccc(OC)c1OC` (centres undefined), the RP-LC retention time was 902 s. With `COc1cc(OC)c(NC(=O)Cn2c(N(C)Cc3ccccc3)nc(C)cc2=O)cc1Cl` the RP-LC retention time was 818 s. `Cc1ccc(S(=O)(=O)N2CCC(c3cc(N)on3)CC2)cc1` showed an RP-LC retention time of 789 s. For `O=C(c1ccc(-n2cccn2)nc1)N1CCSCC1`, the RP-LC retention time was 714 s. `CC(=O)c1ccc(NC(=O)c2cc(-c3cccnc3)nc3ccccc23)cc1` gave an RP-LC retention time of 732 s. `Cc1ccc2c(c1)N(CCC(C)C)N=C(C(=O)N1CCCCC1)S2(=O)=O` gave an RP-LC retention time of 1080 s. Compound `Cc1ccc(NS(=O)(=O)c2cn(CC(C)C)c3ncccc23)c(C)c1` has an RP-LC retention time of 1050 s. `COCCC1CCN(C(=O)CN(C)C(=O)COc2ccccc2)CC1` gave an RP-LC retention time of 694 s. For `O=C(NC1CCCCCC1)C1CCN(c2cncnc2N2CCCCC2)CC1`, the RP-LC retention time was 712 s. Work on `Cc1cc2nc(CN3CCN(Cc4ccccc4)CC3)c(=O)[nH]c2cc1C` yielded an RP-LC retention time of 620 s. With `CCOCC(=O)N1CCC(Oc2nccnc2N(C)C)C1` (centres undefined) the RP-LC retention time was 616 s. `CCOC(=O)CN1CCC(c2nnc(-c3ccc(F)cc3)o2)CC1` showed an RP-LC retention time of 555 s. With `COc1cccc(-c2noc(C3CCCN3C(=O)NC(C)C)n2)c1` (centres undefined) the RP-LC retention time was 802 s. `CCOc1ccccc1NC(=O)Cn1nc2n(c1=O)CCCC2` showed an RP-LC retention time of 655 s. In the case of `Cc1nc(-c2ccccc2)sc1C(=O)NC1CC1`, the RP-LC retention time is reported as 799 s. For `Cc1nn(-c2nc(-c3ccc(F)cc3)cs2)c(C)c1CC(=O)Nc1ccccc1F`, the RP-LC retention time was 1140 s. Compound `COC(=O)c1c(-c2cccc(F)c2)noc1NCCc1c(C)noc1C` has an RP-LC retention time of 968 s. In the case of `CNC(=O)C1CCCN(C(=O)Nc2ccc(NC(=O)Nc3ccc(F)cc3)cc2)C1` (centres undefined), the RP-LC retention time is reported as 665 s. `CN(C)c1ccc(CNC(=O)C2CCN(c3cnc4nccnc4c3)CC2)cc1` showed an RP-LC retention time of 562 s. With `O=c1ccc(S(=O)(=O)N2CCOCC2)cn1Cc1ccc(F)cc1` the RP-LC retention time was 759 s. Work on `O=C(NCc1ccco1)c1ccc(NS(=O)(=O)c2cccc(C(F)(F)F)c2)cc1` yielded an RP-LC retention time of 818 s. Work on `CCOC(=O)c1ccccc1NC(=O)Cn1c(=O)c(CCC(=O)NC2CCCC2)nc2ccccc21` yielded an RP-LC retention time of 1130 s. With `CCC(C(=O)Nc1ccc(-c2nc(Cn3cccn3)c(C)o2)cc1)c1ccccc1` (centres undefined) the RP-LC retention time was 962 s. `CCc1nnc(-c2cc(S(=O)(=O)NCCCc3ccccc3)cn2C)o1` gave an RP-LC retention time of 864 s. For `Cc1c(C(=O)NC2CCS(=O)(=O)C2)nnn1-c1ccccc1F` (centres undefined), the RP-LC retention time was 656 s. Work on `CN1CCN(c2c(F)cc(C(=O)Nc3nc(-c4ccccc4)cs3)c(F)c2F)CC1` yielded an RP-LC retention time of 750 s. `CC(C)CCC(=O)N1CCN(c2nc(CN3CCOCC3)cs2)CC1` showed an RP-LC retention time of 624 s. In the case of `Cc1ccc(NC(=O)N2CCC(OC3CCN(S(C)(=O)=O)CC3)CC2)cc1`, the RP-LC retention time is reported as 738 s. Work on `OC(CNCc1ccc(-c2ccc(Br)cc2)o1)c1ccccc1` (centres undefined) yielded an RP-LC retention time of 755 s. For `CC(C)NC(=O)c1ccc(OCC2CCCN(C(=O)C3CCCO3)C2)cc1` (centres undefined), the RP-LC retention time was 688 s. In the case of `O=C(Nc1ccccc1F)N1C[C@H]2C[C@H](C1)[C@H]1CCCC(=O)N1C2`, the RP-LC retention time is reported as 627 s.
